According to US20110212923A1, “Phosphate Derivatives of Substituted Benzoxazoles” (PFIZER INC., priority 2008, published 2011):
In brackets after ≈: the same amount, converted by molar mass.

Legend:
[1] = tested on: Albino BALBc mice, cecal ligation puncture (CLP); assay: cecal ligation puncture (mCLP) model, 7-day survival; assay type: in vivo
Method: The cecal ligation puncture (CLP) procedure was derived from a modification of standard methods previously described. Female, non-pregnant, specific pathogen-free, Albino BALBc mice (20-25 gm) were used in this experiment. The test compound (n=8 in each group) or corn oil control (n=12) were randomized to a treatment protocol consisting of 50 mg/kg of either the test compound or similar volume of corn oil at the time of CLP (time 0) and 24 and 48 hours following surgery. Animals were allowed to eat and drink sterile water on an ad libitum basis until 12 h before surgery when food was withheld until after the surgical procedure.
Anesthetized animals (methoxyflurane, Mallinckodt Veterninary Inc., Mundeline, Ill.) had the abdominal skin shaved and a midline, abdominal incision was made. The cecum was exteriorized and distended using intraluminal contents from the colon. The cecum was then ligated below the ileocecal valve and punctured twice using a 23-gauge sterile needle. The cecum was returned to the peritoneal cavity and the transversalis fascia was closed along with the skin incision. The skin incision was covered with topical bacitracin ointment. The animals were given a single […] dose of trovafloxacin (20 mg/kg IM) immediately post-operatively and a 1-mL subcutaneous dose of PBS was given as fluid resuscitation. […] All animals underwent necropsy examination for histological evidence of organ injury, pathology scoring of intestinal mucosa and quantitative bacteriology.
Differences in survival time between groups were analyzed by Kaplan-Meier survival plots and log-rank testing. Other parameters were measured using a Mann-Whitney U-Test for 2 groups or the Kruskal-Wallis one way analysis of variance for 3 or more groups. A p value of <0.05 was considered significant. All data is presented as mean and standard deviation.
The root compound (ERB-041) was dosed IV in the mCLP model, at 1 and 3 mg/kg at 24, 48 and 72 hours after induction of peritonitis. This therapeutic IV administration in mCLP confirmed attenuation of lung injury and cytokine/chemokine responses and attenuation of the subsequent clinical course, respectively.^5 achieving 7-day survival of 95 and 90% in the 3 and 1 mg/kg groups.
The 1 and 3 mg/kg doses were different from vehicle (0.05).

[2] = aqueous solubility at pH 7.4; assay type: physicochemical; conditions: aqueous medium at pH 7.4 (buffer not specified), pH 7.4, aqueous buffer
[3] = metabolite profiling of pooled plasma after single IV dose of the mono-phosphate derivative, rat; conditions: single IV dose of mono-phosphate derivative (1.3 and 3.9 mg/kg), LC/UV/MS
Method: (§1) In this study, 5, 15, 30 min, 1, 2, 4, 6, 8 and 24 hr plasma samples were collected following a single IV dose of the mono-phosphate derivative (1.3 and 3.9 mg/kg) to mice, rats and monkeys. Equal volume (100 μL) of samples from 5, 15, 30 min and 1, 2, 4 hr and 6, 8, 24 hr time points from each subject (n=3) were pooled from the two dosing groups. Aliquots (900 μL) of pooled plasma were mixed with 2700 μL of cold acetonitrile and centrifuged at 3200×g for 10 minutes. The resulting supernatants were transferred to clean tubes and evaporated to dryness in a TurboVap LV at ambient temperature under a slow stream of nitrogen. The dried extracts were reconstituted with 300 μL of 20:80 acetonitrile:water (v/v). The samples were then analyzed by LC/UV/MS for metabolite profiling and characterization. LC-ESI/MS in negative ionization mode was used to acquire mass spectral data.

[4] = metabolite profiling of pooled plasma after single IV dose of the mono-phosphate derivative, mouse; conditions: single IV dose of mono-phosphate derivative (1.3 and 3.9 mg/kg), LC/UV/MS
Method: as §1

[5] = metabolite profiling of pooled plasma after single IV dose of the mono-phosphate derivative, monkey; conditions: single IV dose of mono-phosphate derivative (1.3 and 3.9 mg/kg), LC/UV/MS
Method: as §1

[6] = IV pharmacokinetics; assay type: in vivo
Method: as §1

[7] = 1 mg/kg IV at 24, 48 and 72 hours after surgery / induction of peritonitis
[8] = 3 mg/kg IV at 24, 48 and 72 hours after surgery / induction of peritonitis

| SMILES | 7-day survival [1, 7] | 7-day survival [1, 8] | lung injury and cytokine/chemokine responses ([1]; 1 and 3 mg/kg IV at 24, 48 and 72 hours after induction of peritonitis) | solubility [2] | Metabolites of phosphate prodrug characterized in plasma: Rat [3] | Metabolites of phosphate prodrug characterized in plasma: Mouse [4] | Metabolites of phosphate prodrug characterized in plasma: Monkey [5] | 7-day survival ([1]; 0.3 mg/kg IV at 24, 48 and 72 hours after surgery) | minimally effective dose in mCLP ([1]; IV) | IV pharmacokinetics [6] |
| --- | --- | --- | --- | --- | --- | --- | --- | --- | --- | --- |
| C=Cc1cc(O)cc2nc(-c3ccc(O)c(F)c3)oc12 [ERB-041, 2-(3-fluoro-4-hydroxyphenyl)-7-vinyl-1,3-benzoxazol-5-ol, reference compound] | 90% | 95% | attenuation | 4 µg/mL (≈ 14.7 µM) | Yes | Yes | Yes | – | – | – |
| C=Cc1cc(O)cc2nc(-c3ccc(OP(=O)(O)O)c(F)c3)oc12 [Mono-Phosphate derivative of ERB 041, 2-fluoro-4-(5-hydroxy-7-vinylbenzo[d]oxazol-2-yl)phenyl dihydrogen phosphate] | 60% | 60% | – | > 100 µg/mL | Yes | Yes | Yes | 40% | 1 mg/kg | reasonable |
